Assay results from US20120121540A1 (priority 2007, published 2012).

Test: HCV replicon assay (luciferase reporter, ET cell line)
Format: cell-based
Conditions: Hepatitis C virus, HCV replicon luciferase activity in ET cells
Protocol: A cell line, ET (Huh-lucubineo-ET) is used for screening of compounds for inhibiting HCV RNA dependent RNA polymerase. The ET cell line is stably transfected with RNA transcripts harboring a I389 luc-ubi-neo/NS3-3′/ET; replicon with firefly luciferase-ubiquitin-neomycin phosphotransferase fusion protein and EMCV-IRES driven NS3-5B polyprotein containing the cell culture adaptive mutations (E1202G; T1280I; K1846T) (Krieger at al, 2001 and unpublished). The ET cells are grown in DMEM (Dulbeco's Modified Eagle's Medium), supplemented with 10% fetal calf serum, 2 mM Glutamine, Penicillin (100 IU/mL)/Streptomycin (100 μg/mL), 1× nonessential amino acids, and 250 μg/mL G418 (“Geneticin”). They are all available through Life Technologies (Bethesda, Md.). The cells are plated at 0.5−1.0×10^4 cells/well in the 96 well plates and incubated for 24 hrs before adding test compound. The compounds are added to the cells to achieve a final concentration of 0.1 nM to 50 μm and a final DMSO (dimethylsulfoxide) concentration of 0.5%. Luciferase activity is measured 48-72 hours later by adding a lysis buffer and the substrate (Catalog number Glo-lysis buffer E2661 and Bright-Glo luciferase system E2620 Promega, Madison, Wis.). Cells should not be too confluent during the assay. Percent inhibition of replication data is plotted relative to no compound control. Under the same condition, cytotoxicity of the compounds are determined using cell proliferation reagent, WST-1 (Roche, Germany). The compounds showing antiviral activities, but no significant cytotoxicities are chosen to determine EC50 and TC50. For these determinations, a 10 point, 2-fold serial dilution for each compound was used, which spans a concentration range of 1000 fold. EC50 and similarly TC50 values were calculated by fitting % inhibition at each concentration to the following equation:
% inhibition=100%/[(EC50/[I])^b+1]
where b is Hill's coefficient.
% inhibition values at a specific concentration, […] for example, can also be derived from the equation above.

SMILES	inhibition at 10 µM [%]
O=C(N[C@H]1C[C@@H]1c1ccccc1)c1nc2c(C(F)(F)F)cc(-c3ccco3)cn2c1Cl (stereo in doubt) [Compound 188, 3-Chloro-6-furan-2-yl-8-trifluoromethyl-imidazo[1,2-a]pyridine-2-carboxylic acid (2-phenyl-cyclopropyl)-amide]	80.5
COC(=O)[C@@H]1CN(C(=O)c2nc3c(C(F)(F)F)cc(-c4ccoc4)cn3c2Cl)C[C@H]1c1ccccc1 (stereo in doubt) [Compound 221, 1-(3-Chloro-6-furan-3-yl-8-trifluoromethyl-imidazo[1,2-a]pyridine-2-carbonyl)-4-phenyl-pyrrolidine-3-carboxylic Acid Methyl Ester]	73.6
CN(C)CCNC(=O)[C@@H]1CN(C(=O)c2nc3c(C(F)(F)F)cc(-c4ccoc4)cn3c2Cl)C[C@H]1c1ccccc1 (stereo in doubt) [Compound 224, 1-(3-Chloro-6-furan-3-yl-8-trifluoromethyl-imidazo[1,2-a]pyridine-2-carbonyl)-4-phenyl-pyrrolidine-3-carboxylic Acid (2-dimethylamino-ethyl)-amide]	98.7
O=C(NCCN1CCOCC1)[C@@H]1CN(C(=O)c2nc3c(C(F)(F)F)cc(-c4ccoc4)cn3c2Cl)C[C@H]1c1ccccc1 (stereo in doubt) [Compound 225]	39.8
COC(=O)[C@H]1[C@@H](c2ccccc2)CCN1C(=O)c1nc2c(C(F)(F)F)cc(-c3ccoc3)cn2c1Cl (stereo in doubt) [Compound 227, 1-(3-Chloro-6-furan-3-yl-8-trifluoromethyl-imidazO [1,2-a]pyridine-2-carbonyl)-3-phenyl-pyrrolidine-2-carboxylic Acid Methyl Ester]	49.2
CN(C)CCNC(=O)[C@H]1[C@@H](c2ccccc2)CCN1C(=O)c1nc2c(C(F)(F)F)cc(-c3ccoc3)cn2c1Cl (stereo in doubt) [Compound 230, 1-(3-Chloro-6-furan-3-yl-8-trifluoromethyl-imidazo[1,2-a]pyridine-2-carbonyl)-3-phenyl-pyrrolidine-2-carboxylic Acid (2-dimethylamino-ethyl)-amide]	53.4
C[C@@H](CNC(=O)c1nc2c(C(F)(F)F)cc(-c3ccoc3)cn2c1Cl)c1ccccc1 (stereo in doubt) [Compound 413, 3-Chloro-6-furan-3-yl-8-trifluoromethyl-imidazo[1,2-a]pyridine-2-carboxylic Acid (2-phenyl-propyl)-amide]	82.8
CC(C)(C)OC(=O)N[C@H]1CN(C(=O)c2nc3c(C(F)(F)F)cc(-c4ccoc4)cn3c2Cl)C[C@@H]1c1ccccc1 (stereo in doubt) [Compound 456, (-1-(3-Chloro-6-furan-3-yl-8-trifluoromethyl-imidazo[1,2-a]pyridine-2-carbonyl)-4-phenyl-pyrrolidin-3-yl)-carbamic acid tert-butyl ester]	79.3
CS(=O)(=O)N[C@H]1CN(C(=O)c2nc3c(C(F)(F)F)cc(-c4ccoc4)cn3c2Cl)C[C@@H]1c1ccccc1 (stereo in doubt) [Compound 458, N-(-1-(3-Chloro-6-furan-3-yl-8-trifluoromethyl-imidazo[1,2-a]pyridine-2-carbonyl)-4-phenyl-pyrrolidin-3-yl)-methanesulfonamide]	64.6
CC(=O)N[C@H]1CN(C(=O)c2nc3c(C(F)(F)F)cc(-c4ccoc4)cn3c2Cl)C[C@@H]1c1ccccc1 (stereo in doubt) [Compound 459, N-(-1-(3-Chloro-6-furan-3-yl-8-trifluoromethyl-imidazo[1,2-a]pyridine-2-carbonyl)-4-phenyl-pyrrolidin-3-yl)-acetamide]	25.5
O=C(NCc1cccs1)c1cc2cc(-c3ccccc3)cc(I)n2n1 [Compound 102, 7-Iodo-5-phenyl-pyrazolo[1,5-a]pyridine-2-carboxylic Acid (thiophen-2-ylmethyl)-amide]	81
O=C(NCc1cccs1)c1nc2c(C(F)(F)F)cc(-c3ccccc3)nc2[nH]1 [Compound 103, 5-Phenyl-7-trifluoromethyl-3H-imidazo[4,5-b]pyridine-2-carboxylic acid (thiophen-2-ylmethyl)-amide]	54.7
O=C(NCc1cccs1)c1[nH]c2c(C(F)(F)F)cc(-c3ccccc3)cc2c1Cl [Compound 104, 3-Chloro-5-phenyl-7-trifluoromethyl-1H-indole-2-carboxylic Acid (thiophen-2-ylmethyl)-amide]	44
O=C(NCc1cccs1)c1cc2cc(-c3ccco3)cc(Cl)c2[nH]1 [Compound 105, 7-Chloro-5-furan-2-yl-1H-indole-2-carboxylic acid (thiophen-2-ylmethyl)-amide]	58.2
O=C(NCc1cccs1)c1cc2cc(-c3ccccc3)cc(Cl)c2[nH]1 [Compound 106, 7-Chloro-5-phenyl-1H-indole-2-carboxylic Acid (thiophen-2-ylmethyl)-amide]	60.8
O=C(NCc1cccs1)c1cc2cc(-c3ccccc3)cc(C(F)(F)F)n2n1 [Compound 107, 5-Phenyl-7-trifluoromethyl-pyrazolo[1,5-a]pyridine-2-carboxylic Acid (thiophen-2-ylmethyl)-amide]	82.4
N#Cc1cc(-c2ccccc2)cc2cc(C(=O)NCc3cccs3)nn12 [Compound 108, 7-Cyano-5-phenyl-pyrazolo[1,5-a]pyridine-2-carboxylic acid (thiophen-2-ylmethyl)-amide]	52.2
O=C(NCc1cccs1)c1[nH]c2c(Cl)cc(-c3ccccc3)cc2c1Cl [Compound 110, 3,7-Dichloro-5-phenyl-1H-indole-2-carboxylic acid (thiophen-2-ylmethyl)-amide]	35.9
O=C(NCc1cccs1)c1cc2cc(-c3ccccc3)cc(Br)n2n1 [Compound 111, 7-Bromo-5-phenyl-pyrazolo[1,5-a]pyridine-2-carboxylic Acid (thiophen-2-ylmethyl)-amide]	64.2
O=C(NCc1cccs1)c1nn2c(Br)cc(-c3ccccc3)cc2c1Cl [Compound 112, 7-Bromo-3-chloro-5-phenyl-pyrazolo[1,5-a]pyridine-2-carboxylic Acid (thiophen-2-ylmethyl)-amide]	74.2
O=C(NCc1cccs1)c1nn2c(Br)cc(-c3ccccc3)cc2c1Br [Compound 113, 3,7-dibromo-5-phenyl-pyrazolo[1,5-a]pyridine-2-carboxylic Acid (thiophen-2-ylmethyl)-amide]	77.3
Cc1cc(-c2ccccc2)cc2cc(C(=O)NCc3cccs3)nn12 [Compound 114, 7-Methyl-5-phenyl-pyrazolo[1,5-a]pyridine-2-carboxylic acid (thiophen-2-ylmethyl)-amide]	37.9
Cc1c(C(=O)NCc2cccs2)nn2c(C)cc(-c3ccccc3)cc12 [Compound 115, 3,7-dimethyl-5-phenyl-pyrazolo[1,5-a]pyridine-2-carboxylic Acid (thiophen-2-ylmethyl)-amide]	55.3
COc1cc(-c2ccccc2)cc2cc(C(=O)NCc3cccs3)nn12 [Compound 117, 7-Methoxy-5-phenyl-pyrazolo[1,5-a]pyridine-2-carboxylic Acid (thiophen-2-ylmethyl)-amide]	25.8
